Assay [1] concerns platelet aggregation induced by 2.5 nm of PAF. Briefly: Inhibition of PAF-induced platelet aggregation on platelet rich plasma (Born method). In kind it is cell-based, New Zealand rabbits. The conditions noted are these: Oryctolagus cuniculus; rabbit platelet rich plasma, 2.5 nm PAF. The procedure: 1. --Inhibition of the platelets aggregation on New Zealand Rabbits
The experimentation was conducted on platelets with plasma of New Zealand rabbits.
Blood samples were taken from auricular artery and placed in a citrate buffer (3.8%; pH 7.4); blood was further centrifugated for 15 mn at 1200 rpm.
The tested sample was prepared in DMSO, then poured on platelets rich plasma for 1 mn, then a dose of 2.5 nm of PAF was added.
The determination is made on a Cronolog Coultronics apparatus which determines the transmission percentage corresponding to the maximum height of the peak before the desaggregation.
The percentage of variation of the inhibition with respect to the transmission percentage is calculated (control: pure DMSO).
This method was described in detail in LABORATORY INVESTIGATIONS, Vol. 41, No. 3, p. 275, 1979, JEAN-PIERRE CAZENAVE, Dr. MED., JACQUES BENVENISTE, DR. MED., AND J. FRASER MUSTARD, M. D., "Aggregation of rabbits platelets by platelet-activating factor is independent of the release reaction and the arachidonate pathway and inhibited by membrane-active drugs".

The next assay has as its target T1, PAF receptors (Oryctolagus cuniculus, UniProt G1TEI7).
T1 construct: from tissue; host or cells: rabbit platelet homogenate
Briefly: Binding studies on a rabbit platelet homogenate (3[H]-PAF). An excerpt: This activity was evidenced by binding studies on a rabbit platelet homogenate. In this preparation indeed, those derivatives inhibit the specific bond of ^3 [H]--PAF, whereas they are without significative effect on the binding of the appropriate ligands on tissue homogenates rich in benzodiazepinic (central and peripheral), histaminergic (H1 and H2) and adrenergic (α1, α2, β2, β3) receptors, to angiotensine II or to ANF. Their affinity is therefore characteristic of PAF receptors.

A word on the IC50: it is the concentration at which inhibition is half-maximal. High values mean a need for much substance, low ones inhibition by little substance.

T1 sequence (G1TEI7 1-342): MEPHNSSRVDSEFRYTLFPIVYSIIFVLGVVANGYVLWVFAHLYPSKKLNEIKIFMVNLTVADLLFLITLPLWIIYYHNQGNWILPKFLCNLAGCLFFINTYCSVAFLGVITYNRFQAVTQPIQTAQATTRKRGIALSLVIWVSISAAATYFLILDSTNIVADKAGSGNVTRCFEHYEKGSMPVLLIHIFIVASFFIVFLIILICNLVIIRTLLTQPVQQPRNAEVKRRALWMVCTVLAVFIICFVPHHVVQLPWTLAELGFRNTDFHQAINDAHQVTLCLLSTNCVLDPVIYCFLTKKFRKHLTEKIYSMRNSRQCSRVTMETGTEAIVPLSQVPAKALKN

On to `CCCCCCCCC1CN(C(=O)c2cc(OC)c(OC)c(OC)c2)CCN1C(=O)c1cc(OC)c(OC)c(OC)c1` (centres unmarked) [Example 1, N,N'-bis-(3',4',5'-trimethoxybenzoyl)-2-n-octyl piperazine], for which the IC50 in assay [1] was found to be 120 nM; at PAF receptors it was 62 nM.
For `COc1cc(C(=O)N2CCN(C(=O)c3cc(OC)c(OC)c(OC)c3)C(CCC(C)(C)C)C2)cc(OC)c1OC` (centres unmarked) [Example 2, N,N'-bis-(3',4',5'-trimethoxybenzoyl) 2-(3",3"-dimethyl) -butyl piperazine], the results for the concentration for half-maximal inhibition (IC50) (in assay [1]; on PAF receptors) were 710 nM and 250 nM, respectively.
As for `COc1cc(C(=O)N2CCN(C(=O)c3cc(OC)c(OC)c(OC)c3)C(C)C2)cc(OC)c1OC` (centres unmarked) [Example 3, N,N'-bis-(3',4',5'-trimethoxybenzoyl) 2-methyl piperazine], the IC50 turned out to be 560 nM in assay [1] and 670 nM on PAF receptors.
For the molecule `CCCCCC1CN(C(=O)c2cc(OC)c(OC)c(OC)c2)CCN1C(=O)c1cc(OC)c(OC)c(OC)c1` (centres unmarked) [Example 4, N,N'-bis-(3',4',5'-trimethoxybenzoyl) 2-n-pentyl piperazine], the IC50 in assay [1] worked out at 190 nM; at PAF receptors it was 32 nM.
With `CCCCCCCCCCCCCCCC1CN(C(=O)c2cc(OC)c(OC)c(OC)c2)CCN1C(=O)c1cc(OC)c(OC)c(OC)c1` (centres unmarked) [Example 5, N,N'-bis-(3',4',5'-trimethoxybenzoyl) 2-n-pentadecyl piperazine], the IC50 in assay [1] was 5800 nM; on PAF receptors it was 6300 nM.
For the molecule `CCCCCCCCCCCCCCCCCCCC1CN(C(=O)c2cc(OC)c(OC)c(OC)c2)CCN1C(=O)c1cc(OC)c(OC)c(OC)c1` (centres unmarked) [Example 6, N,N'-bis-(3',4',5'-trimethoxybenzoyl) 2-n-nonadecyl piperazine], the IC50 is 2400 nM in assay [1] and 4700 nM on PAF receptors.
As to `COc1cc(C(=O)N2CCN(C(=O)c3cc(OC)c(OC)c(OC)c3)C(CCC3CCCCC3)C2)cc(OC)c1OC` (centres unmarked) [Example 7, N,N'-bis-(3',4',5'-trimethoxybenzoyl)-2-n-(cyclohexylethyl) piperazine], the IC50 in assay [1] is 430 nM; on PAF receptors, 740 nM.
Turning to `COc1cc(CCC2CN(C(=O)c3cc(OC)c(OC)c(OC)c3)CCN2C(=O)c2cc(OC)c(OC)c(OC)c2)cc(OC)c1OC` (centres unmarked) [Example 8, N,N'-bis-(3',4',5'-trimethoxybenzoyl)-2-n-(3,4,5-(trimethoxy)phenethyl) piperazine], the 50% inhibitory concentration (IC50) came out at 71 nM in assay [1] and 38 nM at PAF receptors.
On the same counts, the results for `COc1cc(C(=O)N2CCN(C(=O)c3cc(OC)c(OC)c(OC)c3)C(Cc3ccccc3)C2)cc(OC)c1OC` (centres unmarked) [Example 9, N,N'-bis-(3',4',5'-trimethoxybenzoyl)-2-n-(benzyl) piperazine] are 410 nM and 730 nM.
Take `COc1cc(C(=O)N2CCN(C(=O)c3cc(OC)c(OC)c(OC)c3)C(CCc3ccccc3)C2)cc(OC)c1OC` (centres unmarked) [Example 10, N,N'-bis-(3',4',5'-trimethoxybenzoyl)-2-n-(phenethyl) piperazine]: the IC50 was found to be 5400 nM in assay [1] and 4100 nM on PAF receptors.
For the molecule `COc1cc(C(=O)N2CCN(C(=O)c3cc(OC)c(OC)c(OC)c3)C(CCCc3ccccc3)C2)cc(OC)c1OC` (centres unmarked) [Example 11, N,N'-bis-(3',4',5'-trimethoxybenzoyl)-2-n-(phenyl-n-propyl) piperazine], the IC50 in assay [1] was determined as 11 nM; on PAF receptors, 31 nM.
As for `COc1ccc(CCC2CN(C(=O)c3cc(OC)c(OC)c(OC)c3)CCN2C(=O)c2cc(OC)c(OC)c(OC)c2)cc1` (centres unmarked) [Example 12, N,N'-bis-(3',4',5'-trimethoxybenzoyl)-2-n-(p-(methoxy)phenethyl) piperazine], the IC50 in assay [1] worked out at 62 nM; at PAF receptors it was 60 nM.
On the same counts, the results for `COc1cc(C(=O)N2CCN(C(=O)c3cc(OC)c(OC)c(OC)c3)C(CCCc3ccc(C)cc3)C2)cc(OC)c1OC` (centres unmarked) [Example 13, N,N'-bis-(3',4',5'-trimethoxybenzoyl)-2-n-(p-(methyl)phenylpropyl) piperazine] are 350 nM and 140 nM.
`COc1cc(C(=O)N2CCN(C(=O)c3cc(OC)c(OC)c(OC)c3)C(CCc3ccc(Cl)cc3)C2)cc(OC)c1OC` (centres unmarked) [Example 14, N,N'-bis-(3',4',5'-trimethoxybenzoyl)-2-n-(p-(chloro)phenethyl) piperazine]: the concentration for half-maximal inhibition (IC50) in assay [1] amounted to 170 nM; at PAF receptors, 450 nM.
As for `COc1cc(C(=O)N2CCN(C(=O)c3cc(OC)c(OC)c(OC)c3)C(CCc3cccc(Cl)c3Cl)C2)cc(OC)c1OC` (centres unmarked) [Example 15, N,N'-bis-(3',4',5,-trimethoxybenzoyl)-2-n-(2,3-(dichloro)phenethyl) piperazine], the figures for the IC50 (in assay [1]; on PAF receptors) were 370 nM and 680 nM, respectively.
As for `C=CCc1ccc(CCC2CN(C(=O)c3cc(OC)c(OC)c(OC)c3)CCN2C(=O)c2cc(OC)c(OC)c(OC)c2)cc1` (centres unmarked) [Example 16, N,N'-bis-(3',4',5'-trimethoxybenzoyl)-2-n-(p-(allyl)phenethyl) piperazine], the IC50 in assay [1] was 290 nM; on PAF receptors, 530 nM.
